Patent US20110200693A1, “INCREASING THE EFFICIENCY OF UTILIZATION OF INGESTED CREATINE” (priority 2007, published 2011)

What was measured:
[1] = doses from 8 g/d to 21 g/d during 1 to 14 days; cited from earlier work
[2] = Plasma creatine kinetics after a single ingestion of 2 g creatine (one-open compartmental model); assay type: in vivo, human; details: 2 g creatine oral, not influenced by the form ingested
Method: The health status questionnaire was filled in again.
Venous blood was collected on heparin as an anticoagulant. The tubes were placed immediately on ice and centrifuged at 3000 g for 6 min at 4° C. […] NaOH 0.1M (90 μL) was added to supernatant (300 μL) to obtain a pH value of about 7.8. Samples were stored at −20° C.
Using a Marquardt algorithm, all kinetics were fitted with the following equation: […]
This equation corresponds to a one-open compartmental model in which ka, kel and tlag are the primary parameters. Knowing their value, new kinetic parameters of plasma creatine were calculated:
Since the bioavailability (F) may not be measured, only the apparent volume of distribution and the apparent clearance can be estimated:
Vd: the apparent volume of distribution (Vd=V/F, L)

apparent volume of distribution relative to body mass [2]: about 75 % of body mass
Compound: CN(CC(=O)O)C(=N)N [creatine]
fraction of ingested creatine excreted in urine [1]: 33 to 77 % of the original dose
